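In this assay, cells in 96-well plates receive the compound at five concentrations for 48 hours. Endpoints are linearly interpolated between the surrounding concentrations. At the TGI there is no net growth.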

Data on eight compounds can be found in PubChem BioAssay (NCI).

Some test systems named below: OVCAR-5 ovarian; M14 melanoma; NCI/ADR-RES ovarian; COLO 205 colon; HL-60(TB) leukemia; SNB-75 CNS; RXF 393 renal; HOP-92 NSCLC; SK-MEL-5 melanoma; OVCAR-8 ovarian; IGROV1 ovarian; NCI-H522 lung; NCI-H226 lung; UO-31 renal; MDA-N; SK-OV-3 ovarian; HS 578T breast; KM12 colon; PC-3 prostate; CAKI-1 renal.
Holding throughout (assay): NCI tumour cell line growth inhibition, 48 h

Consider `COC(=O)C(C)(C)[C@@H]1OC(=O)N(S(=O)(=O)c2c(C)cc(C)cc2C)[C@H]1C(C)C`, for which the TGI is over 100 µM with OVCAR-5 ovarian; over 100 µM with M14 melanoma; over 100 µM in the experiment on NCI/ADR-RES ovarian; over 100 µM with COLO 205 colon; 84.5 µM in the experiment on HL-60(TB) leukemia; over 100 µM with SNB-75 CNS. The TGI in the experiment on RXF 393 renal was over 100 µM; in the experiment with HOP-92 NSCLC it was 98.2 µM; with SK-MEL-5 melanoma, over 100 µM; in the experiment with OVCAR-8 ovarian, over 100 µM; in the experiment on IGROV1 ovarian it was over 100 µM; in the experiment on NCI-H522 lung, over 100 µM. Moreover, the TGI with NCI-H226 lung, in the experiment with UO-31 renal, in the experiment on MDA-N, in the experiment on SK-OV-3 ovarian, in the experiment with HS 578T breast and with KM12 colon was over 100 µM in each case. Further, the TGI in the experiment with PC-3 prostate was over 100 µM.
Consider `O=[N+]([O-])c1ccc(Oc2c(Cl)cc(S(=O)(=O)/N=C(\NO)Nc3ccc(Cl)cc3)cc2Cl)c(Cl)c1`, for which the TGI stood at 35.5 µM with OVCAR-5 ovarian; 30.1 µM in the experiment on M14 melanoma; 51.4 µM with NCI/ADR-RES ovarian; 35.5 µM in the experiment with COLO 205 colon; 51.7 µM in the experiment on HL-60(TB) leukemia; 26.5 µM with RXF 393 renal. In addition, the TGI in the experiment with HOP-92 NSCLC was 31.2 µM; in the experiment with SK-MEL-5 melanoma, 31.3 µM; with OVCAR-8 ovarian, 54.1 µM; in the experiment on NCI-H522 lung it was 26.4 µM; with NCI-H226 lung it was 48.3 µM; with UO-31 renal, 26.5 µM. For the same compound, the TGI was found to be 28.9 µM in the experiment with MDA-N; 28.3 µM in the experiment with CAKI-1 renal; 36 µM in the experiment on HS 578T breast; 28.4 µM with KM12 colon; 26.7 µM in the experiment on PC-3 prostate.
With `CC(C)(C)OC(=O)NC(Cc1ccc(O)cn1)C(=O)O` (centres undefined), the TGI in the experiment on OVCAR-5 ovarian, in the experiment with NCI/ADR-RES ovarian, in the experiment with COLO 205 colon, with HL-60(TB) leukemia, with SNB-75 CNS and in the experiment on RXF 393 renal was over 100 µM in each case. Further, the TGI in the experiment on HOP-92 NSCLC, in the experiment on SK-MEL-5 melanoma, with OVCAR-8 ovarian, in the experiment on IGROV1 ovarian, in the experiment with NCI-H522 lung and in the experiment on NCI-H226 lung was over 100 µM in each case. Besides, the TGI with UO-31 renal, with MDA-N, with CAKI-1 renal, in the experiment with HS 578T breast, in the experiment on KM12 colon and in the experiment on PC-3 prostate was over 100 µM in each case.
Regarding `Cc1ccc(C(=O)Cn2c(C(=O)/C=C/c3cccs3)nc3ccccc32)cc1`, the TGI in the experiment on OVCAR-5 ovarian, in the experiment on M14 melanoma, with NCI/ADR-RES ovarian, in the experiment with COLO 205 colon, in the experiment on HL-60(TB) leukemia and with SNB-75 CNS was over 100 µM throughout. The TGI with RXF 393 renal, in the experiment on HOP-92 NSCLC, in the experiment with SK-MEL-5 melanoma, in the experiment on IGROV1 ovarian, in the experiment on NCI-H226 lung and in the experiment with UO-31 renal was over 100 µM throughout. For the same compound, the TGI is over 100 µM with MDA-N; over 100 µM with SK-OV-3 ovarian; 72.6 µM with HS 578T breast; over 100 µM with KM12 colon; over 100 µM with PC-3 prostate.
With `[N-]=[N+]=Nc1c(Cl)c(Cl)nc2ccccc12`, the TGI in the experiment with OVCAR-5 ovarian, with M14 melanoma, with NCI/ADR-RES ovarian, in the experiment with COLO 205 colon, in the experiment on SNB-75 CNS and in the experiment on RXF 393 renal was over 100 µM throughout. Moreover, the TGI with HOP-92 NSCLC, with SK-MEL-5 melanoma, in the experiment on OVCAR-8 ovarian, in the experiment on IGROV1 ovarian, with NCI-H522 lung and in the experiment with NCI-H226 lung was over 100 µM each time. The TGI is over 100 µM in the experiment with UO-31 renal; over 100 µM with MDA-N; over 100 µM with SK-OV-3 ovarian; 57.8 µM in the experiment on CAKI-1 renal; over 100 µM in the experiment with HS 578T breast; over 100 µM in the experiment with KM12 colon. The TGI with PC-3 prostate was over 100 µM.
With `O[C@H]1[C@H](O)[C@@H](O)[C@@]2(O)CC[C@@H]1N2`, the TGI with OVCAR-5 ovarian, in the experiment with M14 melanoma, with NCI/ADR-RES ovarian, in the experiment with COLO 205 colon, with SNB-75 CNS and with RXF 393 renal was over 100 µM throughout. Further, the TGI in the experiment on HOP-92 NSCLC, in the experiment on SK-MEL-5 melanoma, in the experiment with OVCAR-8 ovarian, with IGROV1 ovarian, in the experiment on NCI-H522 lung and in the experiment on NCI-H226 lung was over 100 µM each time. In addition, the TGI with UO-31 renal, in the experiment with MDA-N, with SK-OV-3 ovarian, with CAKI-1 renal, with HS 578T breast and in the experiment on KM12 colon was over 100 µM throughout. The same compound had a TGI with PC-3 prostate of over 100 µM.
Regarding `COc1ccc(-c2c3c(n(C4OC(COC(C)=O)C(OC(C)=O)C(OC(C)=O)C4OC(C)=O)c(=S)c2C#N)CCC3)cc1` (centres undefined), the TGI in the experiment with OVCAR-5 ovarian, in the experiment with M14 melanoma, with NCI/ADR-RES ovarian, with COLO 205 colon, in the experiment on HL-60(TB) leukemia and with SNB-75 CNS was over 100 µM throughout. Further, the TGI was over 100 µM with RXF 393 renal; 49.3 µM in the experiment with HOP-92 NSCLC; over 100 µM with SK-MEL-5 melanoma; over 100 µM in the experiment on IGROV1 ovarian; over 100 µM in the experiment on UO-31 renal; over 100 µM in the experiment on MDA-N. The TGI in the experiment on SK-OV-3 ovarian, in the experiment on CAKI-1 renal, in the experiment with HS 578T breast, with KM12 colon and in the experiment with PC-3 prostate was over 100 µM in each case.
In the case of `CCN(CC)C1CCC(C2c3cc4c(cc3OC(N3CCOCC3)C2C)OCO4)CC1` (centres undefined), the TGI in the experiment with OVCAR-5 ovarian is 96.9 µM; in the experiment on M14 melanoma, over 69.3 µM; in the experiment on NCI/ADR-RES ovarian, over 83.1 µM; in the experiment on COLO 205 colon it was over 100 µM; in the experiment with HL-60(TB) leukemia it was 89.8 µM; with SNB-75 CNS it was over 100 µM. Moreover, the TGI is 52.7 µM with RXF 393 renal; over 100 µM with HOP-92 NSCLC; over 55.7 µM with SK-MEL-5 melanoma; over 100 µM with OVCAR-8 ovarian; over 100 µM in the experiment with IGROV1 ovarian; 72.5 µM in the experiment on NCI-H522 lung. The TGI with UO-31 renal was over 100 µM; in the experiment on MDA-N, 38 µM; with CAKI-1 renal, over 100 µM; with HS 578T breast, over 72.1 µM; in the experiment on KM12 colon, over 100 µM; in the experiment on PC-3 prostate, over 100 µM.
